Consider four compounds from patent publication US6444684B1 (priority 1993, dated 2002).

Like-named read-outs stand apart in the source and are kept apart here.

In data set [1] the test system is normal rat kidney epithelial (NRKE) cells.
Data set [2] concerns K/1 = ras^K Transformed NRKE Cells. As to conditions: for Differential Index K/1: K/1 = ras^K transformed NRKE cells, compared with normal NRKE cells.
Data set [3] deals with H/1.2 = ras^H Transformed NRKE Cells. As to conditions: for Differential Index H/1.2: H/1.2 = ras^H transformed NRKE cells, compared with normal NRKE cells.
The test system of data set [4] is N/4.2-NRKE transformed by the human ras^N gene. To be noted: for Differential Index N/4.2: N/4.2 = ras^N transformed NRK cells, compared with normal NRKE cells.
Data set [5] concerns 3LL = Lewis Lung Carcinoma Cells. To be noted: for Differential Index 3LL: 3LL = Lewis lung carcinoma cells, compared with normal NRKE cells.
Data set [6] deals with K/1 = ras^K Transformed NRKE Cells. As to the kind of experiment: cells. To be noted: Rattus norvegicus, read-out: LC50 K/1.
Data set [7] concerns H/1.2 = ras^H Transformed NRKE Cells. As to the kind of experiment: cells. To be noted: Rattus norvegicus, read-out: LC50 H/1.2.
Data set [8] deals with N/4.2-NRKE transformed by the human ras^N gene. As to the kind of experiment: cells. As to conditions: N42, read-out: LC50 N/4.2.
The subject of data set [9] is 3LL = Lewis Lung Carcinoma Cells. The data set is described as follows: cells. As to conditions: Mus musculus.
The nature of data set [10]: in vitro. To be noted: rat, LC50 NRKE.
Data set [11] relates to ras oncogene p21 protein. As to conditions: U.S. Pat. No. 5,158,960; Liu et al.; cited from earlier work.
The target in data set [12] is HIV-RT (Human immunodeficiency virus type 1 group M subtype B, UniProt P03366). As to the kind of experiment: HIV-RT inhibition by AZT-TP, lavendamycin analogs and their combinations. As to conditions: AZT-TP Conc. 0 (unit uncertain); for % inh. ave.: average of three trials. Also on record: unit of the concentration uncertain. Format: biochemical. An excerpt:
AZT-TP was used for these in vitro studies since AZT is naturally phosphorylated in vivo.
The results of these tests are given in Table XVIII and XIX below, where the percent inhibition of HIV-RT activity is reported for three different trials and then averaged in the seventh column. […] .

Data set [13] has as its system Leukemia cell lines. As to the kind of experiment: NCI in vitro anticancer screen (SRB), leukemia subpanel. As to conditions: 48 hours exposure; average percent growth over the cell lines.
Protocol: (§1) Compounds chosen for the program are initially tested in an in vitro anticancer screen. A total of fifty-five human tumor cell lines, derived from nine cancer types (lung, colon, melanoma, renal, ovarian, brain, prostate, breast and leukemia), are used in this screen. The tumor cells are inoculated over a series of standard 96-well microtiter plates on day 0. These cells are then preincubated on the microtiter plates for 24 hours. The test compounds are added to the wells in five 10-fold dilutions starting from the highest soluble concentration. Each compound is tested against every cell line in the panel. The compounds are incubated for 48 hours with the tumor cell lines. At the termination of the assay, the cells are fixed in situ, washed, and dried. Sulforhodamine B (SRB), a pink anionic dye that binds to the basic amino acids of trichloroacetic acid-fixed cells, is added. The cells are washed again, and the remaining dye is a function of the adherent cell mass. The bound stain is solubilized and measured spectrophotometrically. The data are entered from automatic reading devices into a computer for subsequent storage and analysis.
(§2) The measured effect of each test compound on the cell lines is calculated according to one or the other of the following two expressions:
(§3) If (Mean ODtest−Mean ODtzero)□0, then PG=100×(Mean ODtest−Mean ODtzero)/(Mean ODctrl−Mean ODtzero);
(§4) If (Mean ODtest−Mean ODtzero)<0, then PG=100×(Mean ODtest−Mean ODtzero)/Meantzero;
(§5) First, a data sheet is provided which lists, for each cell line, the Mean ODtzero, the Mean ODctrl, the Mean ODtest for each of the five concentrations, the calculated PGs for each concentration, and the response parameters G150, TGI, and LC50.
(§6) Third, mean graphs at each of the principal response parameters (GI50, TGI, and LC50) are provided. […] Since the bar scale is logarithmic, a bar two units to the right implies the compound achieved the response parameter (e.g., GI50) for the cell line at a concentration 1/100 the mean concentration required over all cell lines, and thus the cell line is unusually sensitive to that compound. Bars extending to the left correspondingly imply sensitivity less than the mean. Thus, the mean graphs facilitate visual scanning of data for potential patterns of selectivity for particular cell lines or for particular subpanels with respect to a selected response parameter.
The subject of data set [14] is Melanoma cell lines. The data set is described as follows: NCI in vitro anticancer screen (SRB), melanoma subpanel. As to conditions: 48 hours exposure; average percent growth over the cell lines.
Protocol: as §1, §2, §3, §4, §5, §6
Data set [15] deals with CNS Cancer cell lines. The data set is described as follows: NCI in vitro anticancer screen (SRB), CNS cancer subpanel. To be noted: 48 hours exposure; average percent growth over the cell lines.
Protocol: as §1, §2, §3, §4, §5, §6
Data set [16] concerns Colon Cancer cell lines. As to the kind of experiment: NCI in vitro anticancer screen (SRB), colon cancer subpanel. As to conditions: 48 hours exposure; average percent growth over the cell lines.
Protocol: as §1, §2, §3, §4
For data set [17], the system named is Renal Cancer cell lines. The data set is described as follows: NCI in vitro anticancer screen (SRB), renal cancer subpanel.
Protocol: as §1, §2, §3, §4, §5, §6
The subject of data set [18] is Breast Cancer cell lines. The data set is described as follows: NCI in vitro anticancer screen (SRB), breast cancer subpanel. To be noted: 48 hours exposure; average percent growth over the cell lines.
Protocol: as §1, §2, §3, §4
Data set [19] has as its system Ovarian Cancer cell lines. As to the kind of experiment: NCI in vitro anticancer screen (SRB), ovarian cancer subpanel. To be noted: 48 hours exposure; average percent growth over the cell lines.
In data set [20] the test system is Prostate Cancer cell lines. The data set is described as follows: NCI in vitro anticancer screen (SRB), prostate cancer subpanel. As to conditions: 48 hours exposure; average percent growth over the cell lines.
For data set [21], the system named is Non-Small Cell Lung Cancer cell lines. As to the kind of experiment: NCI in vitro anticancer screen (SRB), non-small cell lung cancer subpanel. To be noted: 48 hours exposure; average percent growth over the cell lines.
The conditions of data set [22]: found by other investigators; cited from earlier work.

As for `CC(=O)NC1=CC(=O)c2ccc(C)nc2C1=O` [Compound 27, 7-ACETAMIDO-2-METHYLQUINOLINE-5,8-DIONE], the CC50 is 4600 nM in data set [1] (rat, 5 days); 5900 nM in [6] (120 h); 14000 nM in data set [6]; 4400 nM in [7] (120 h); 5000 nM in [7]; 5700 nM in data set [8]. The CC50 was determined as 2000 nM in [9] (120 h, read-out: LC50 3LL, Table VII, concentration giving 50% cell kill, 5 days exposure) and 2600 nM in [9] (read-out: LC50 3LL, Table XV (Example 51)). For the same compound, in data set [2], the “Differential Index K/1” value is on record as 0.3. Further, in data set [3], the “Differential Index H/1.2” value came to 0.9. In data set [4], the “Differential Index N/4.2” value was determined as 0.8. Further, the “Differential Index 3LL” value in data set [5] is listed as 1.8. This compound returned a CC50 at 5 days in data set [10] of 2400 nM.

Take `COC1=C(N)C(=O)c2nc(-c3nc(C(=O)O)c(C)c(-c4ccc(OC)cc4O)c3N)ccc2C1=O` [10′-Desmethoxystreptonigrin, 10′-desmethoxystreptonigrin]: the “activity relative to streptonigrin in an assay for the inhibition of the farnesylation of ras oncogene p21 protein” value in data set [11] is given as “three times more active than streptonigrin”.

`CC(=O)NC1=CC(=O)c2ccc(-c3nc(C(N)=O)cc4c3[nH]c3ccccc34)nc2C1=O` [Compound 16]: in data set [12] (LA Conc. 3.0 (unit uncertain)), the “% inh. Trial 1” value worked out at 0%, the “% inh. Trial 2” value is given as 3%, the “% inh. Trial 3” value is on record as 12% and the “% inh. ave.” value came to 5.0%. For the same compound, in data set [12] (LA Conc. 6.0 (unit uncertain)), the “% inh. Trial 1” value stood at 26%, the “% inh. Trial 2” value is listed as 33%, the “% inh. Trial 3” value was determined as 30% and the “% inh. ave.” value was 29.7%. For the same compound, in data set [12] (LA Conc. .5 (unit uncertain)), the “% inh. Trial 1” value worked out at 0%, the “% inh. Trial 2” value was 0%, the “% inh. Trial 3” value came to 0% and the “% inh. ave.” value was determined as 0.0%. The compound also came in with a CC50 in data set [1] of 900 nM. Moreover, in data set [2], the CC50 came out at 350 nM and the “Differential Index K/1” value turned out to be 2.57. In data set [3], the CC50 was found to be 230 nM and the “Differential Index H/1.2” value is reported as 3.91. For the same compound, in data set [4], the CC50 was determined as 220 nM and the “Differential Index N/4.2” value came to 4.09. Besides, in data set [5], the CC50 is 210 nM and the “Differential Index 3LL” value came to 4.29. In addition, in data set [13], the “Activity (Average PG for highest dose tested) Leukemia” value is −28.3%. Also, in [14], the “Activity (Average PG for highest dose tested) Melanoma” value is −78.4%. For the same compound, the “Activity (Average PG for highest dose tested) CNS Cancer” value in [15] is on record as −60.4%. In addition, the “Activity (Average PG for highest dose tested) Colon Cancer” value in data set [16] is −52.1%. The “Activity (Average PG for highest dose tested) Renal Cancer” value in data set [17] (48 hours exposure, average percent growth over the cell lines) is on record as −72.9%. For the same compound, the “Selectivity: sensitivity of one of the seven renal cancer cell lines relative to average sensitivity of the fifty-five cell lines” value in data set [17] (at GI50, TGI and/or LC50, initial screen) is on record as “One of the seven renal cancer cell lines was about 100 times”. Further, in data set [17] (repeat cancer screen), the “selectivity for renal cancer (in words)” value is “did not exhibit the selectivity for renal cancer”. Further, the “Activity (Average PG for highest dose tested) Breast Cancer” value in data set [18] is recorded as −45.1%. Further, the “Activity (Average PG for highest dose tested) Ovarian Cancer” value in [19] was −55.5%. Besides, the “Activity (Average PG for highest dose tested) Prostate Cancer” value in data set [20] is listed as −18.0%. Besides, the “Activity (Average PG for highest dose tested) Non-Small Cell Lung Cancer” value in data set [21] is recorded as −52.3%.

Turning to `Cc1c(C(=O)O)nc(-c2ccc3c(n2)C(=O)C(N)=CC3=O)c2[nH]c3ccccc3c12` [lavendamycin, Lavendamycin], the “dose that is lethal” value in [22] is recorded as 100 mg/kg/day.
